Experimental findings from US12662489B2 (Sitryx Therapeutics Limited, priority 2023, dated 2026) are described below.

In assay [1] the target is T1, MTHFD1 recombinant human enzyme (Homo sapiens, UniProt P11586).
T1 sequence (P11586 2-291 limits assumed): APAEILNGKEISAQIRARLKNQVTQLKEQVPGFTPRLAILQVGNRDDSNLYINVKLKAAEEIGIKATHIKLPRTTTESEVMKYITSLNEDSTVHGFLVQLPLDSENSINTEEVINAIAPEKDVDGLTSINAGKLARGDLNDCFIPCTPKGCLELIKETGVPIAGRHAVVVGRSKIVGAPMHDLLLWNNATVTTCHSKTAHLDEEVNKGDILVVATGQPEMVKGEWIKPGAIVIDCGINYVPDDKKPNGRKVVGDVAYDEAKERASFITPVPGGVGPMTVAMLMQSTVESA
Description: MTHFD1 inhibition assay (NAD(P)H-Glo luminescence). As to conditions: MTHFD1 IC50, recombinant human enzyme 200 nM, NADP, band.

The target in assay [2] is T2, MTHFD2 recombinant human enzyme (Homo sapiens, UniProt P13995).
T2 sequence (P13995 36-350): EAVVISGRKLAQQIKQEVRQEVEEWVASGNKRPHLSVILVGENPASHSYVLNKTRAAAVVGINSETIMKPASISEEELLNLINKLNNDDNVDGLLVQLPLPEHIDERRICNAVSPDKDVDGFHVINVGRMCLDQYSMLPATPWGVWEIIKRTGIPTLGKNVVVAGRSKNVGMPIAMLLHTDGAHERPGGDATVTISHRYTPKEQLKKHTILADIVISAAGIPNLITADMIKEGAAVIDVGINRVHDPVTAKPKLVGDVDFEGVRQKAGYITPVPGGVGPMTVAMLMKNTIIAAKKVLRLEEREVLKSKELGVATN
Description: MTHFD2 inhibition assay (NAD(P)H-Glo luminescence). The following applies: for MTHFD1/MTHFD2 IC50 ratio: selectivity of MTHFD2 inhibition over MTHFD1, band.

In another assay the test system is human CD4+ T cells. The experiment in a line: Human CD4+ T-cell proliferation assay (CFSE, CD3/28 beads). The following applies: read-out: Proliferation IC50.

As for `COC[C@H]1CN(c2cc(C)c3c4c(c(=O)oc3c2C)CN(C(=O)c2cc(N(C)C)c(C(=O)NS(=O)(=O)N3CCC[C@H]3C(F)(F)F)cc2F)CC4)CCN1C` [Example 292, 2-(dimethylamino)-5-fluoro-4-(8-((R)-3-(methoxymethyl)-4-methylpiperazin-1-yl)-7,10-dimethyl-5-oxo-1,3,4,5-tetrahydro-2H-chromeno[3,4-c]pyridine-3-carbonyl)-N-(((S)-2-(trifluoromethyl)pyrrolidin-1-yl)sulfonyl)benzamide], the IC50 fell in the range of 0.1 to 1 µM in assay [1], 0.01 to 0.1 µM in assay [2] and 0.001 to 0.01 µM in the assay with human CD4+ T cells. Besides, the “MTHFD1/MTHFD2 IC50 ratio” value in assay [2] was “J (>30)”.

For the compound `CCOc1cc(C(=O)N2CCc3c(c(=O)oc4c(C)c(N5CCN(C)[C@@H](COC)C5)cc(C)c34)C2)c(F)cc1C(=O)NS(=O)(=O)N1C2CCC1CC2` [Example 218, (R)-N-((7-azabicyclo[2.2.1]heptan-7-yl)sulfonyl)-2-ethoxy-5-fluoro-4-(8-(3-(methoxymethyl)-4-methylpiperazin-1-yl)-7,10-dimethyl-5-oxo-1,3,4,5-tetrahydro-2H-chromeno[3,4-c]pyridine-3-carbonyl)benzamide], the IC50 in assay [1] lay in the range of 0.1 to 1 µM; in assay [2] it was 0.01 to 0.1 µM; in the assay with human CD4+ T cells it was 0.03 to 0.1 µM. Moreover, in assay [2], the “MTHFD1/MTHFD2 IC50 ratio” value was “H (>9.0 to 30)”.

`[2H]C([2H])([2H])Oc1cc(C(=O)N2CCc3c(c(=O)oc4c(C)c(N5CCN(C)[C@@H](COC)C5)cc(C)c34)C2)c(F)cc1C(=O)NS(=O)(=O)N1CCCC1` [Example 225, (R)-5-fluoro-2-(methoxy-d3)-4-(8-(3-(methoxymethyl)-4-methylpiperazin-1-yl)-7,10-dimethyl-5-oxo-1,3,4,5-tetrahydro-2H-chromeno[3,4-c]pyridine-3-carbonyl)-N-(pyrrolidin-1-ylsulfonyl)benzamide]: the IC50 in assay [1] was 0.1 to 1 µM; in assay [2] it was 0.001 to 0.01 µM; with human CD4+ T cells, 0.03 to 0.1 µM. In addition, in assay [2], the “MTHFD1/MTHFD2 IC50 ratio” value was “J (>30)”.

Consider `COC[C@H]1CN(c2cc(C)c3c4c(c(=O)oc3c2C)CN(C(=O)c2cc(N(C)C)c(C(=O)NS(=O)(=O)N3CCC[C@H]3COC)cc2F)CC4)CCN1C` [Example 312, 2-(dimethylamino)-5-fluoro-4-(8-((R)-3-(methoxymethyl)-4-methylpiperazin-1-yl)-7,10-dimethyl-5-oxo-1,3,4,5-tetrahydro-2H-chromeno[3,4-c]pyridine-3-carbonyl)-N-(((S)-2-(methoxymethyl)pyrrolidin-1-yl)sulfonyl)benzamide], for which the IC50 in assay [1] is 0.1 to 1 µM; in assay [2] it was 0.001 to 0.01 µM; with human CD4+ T cells it was 0.01 to 0.03 µM. Also, the “MTHFD1/MTHFD2 IC50 ratio” value in assay [2] is reported as “J (>30)”.

Turning to `CNc1cc(C(=O)N2CCc3c(c(=O)oc4c(C)c(N5CCN(C)[C@@H](COC)C5)cc(C)c34)C2)c(F)cc1C(=O)NS(=O)(=O)N1CCCC1` [Example 201, (R)-5-fluoro-4-(8-(3-(methoxymethyl)-4-methylpiperazin-1-yl)-7,10-dimethyl-5-oxo-1,3,4,5-tetrahydro-2H-chromeno[3,4-c]pyridine-3-carbonyl)-2-(methylamino)-N-(pyrrolidin-1-ylsulfonyl)benzamide], the IC50 was in the range of 1 to 5 µM in assay [1], 0.01 to 0.1 µM in assay [2] and 0.1 to 1 µM in the assay on human CD4+ T cells. The “MTHFD1/MTHFD2 IC50 ratio” value in assay [2] is reported as “J (>30)”.

With `CCOc1c(C(=O)N2CCc3c(c(=O)oc4c(C)c(N5CCN(C)[C@@H](COC)C5)cc(C)c34)C2)ccc(C(=O)NS(=O)(=O)N2CCCC2)c1F` [Example 223, (R)-3-ethoxy-2-fluoro-4-(8-(3-(methoxymethyl)-4-methylpiperazin-1-yl)-7,10-dimethyl-5-oxo-1,3,4,5-tetrahydro-2H-chromeno[3,4-c]pyridine-3-carbonyl)-N-(pyrrolidin-1-ylsulfonyl)benzamide], the IC50 (in assay [1]; in assay [2]; with human CD4+ T cells) was 0.001 to 0.01 µM in each case. In addition, the “MTHFD1/MTHFD2 IC50 ratio” value in assay [2] is given as “F (<3)”.

On to `COC[C@H]1CN(c2cc(C)c3c4c(c(=O)oc3c2C)CN(C(=O)c2ccc(C(=O)NS(=O)(=O)N3CCCC3)c(OC(F)(F)F)c2F)CC4)CCN1C` [Example 169, (R)-3-fluoro-4-(8-(3-(methoxymethyl)-4-methylpiperazin-1-yl)-7,10-dimethyl-5-oxo-1,3,4,5-tetrahydro-2H-chromeno[3,4-c]pyridine-3-carbonyl)-N-(pyrrolidin-1-ylsulfonyl)-2-(trifluoromethoxy)benzamide], for which the IC50 lay in the range of 0.1 to 1 µM in assay [1], 0.01 to 0.1 µM in assay [2] and 0.1 to 1 µM in the assay with human CD4+ T cells. In addition, the “MTHFD1/MTHFD2 IC50 ratio” value in assay [2] is reported as “H (>9.0 to 30)”.

For the compound `COC[C@H]1CN(c2cc(F)c3c4c(c(=O)oc3c2C)CN(C(=O)c2cc(N(C)C)c(C(=O)NS(=O)(=O)N3C5CCC3CC5)cc2F)CC4)CCN1C` [Example 304, (R)-N-((7-azabicyclo[2.2.1]heptan-7-yl)sulfonyl)-2-(dimethylamino)-5-fluoro-4-(10-fluoro-8-(3-(methoxymethyl)-4-methylpiperazin-1-yl)-7-methyl-5-oxo-1,3,4,5-tetrahydro-2H-chromeno[3,4-c]pyridine-3-carbonyl)benzamide], the IC50 in assay [1] lay in the range of 1 to 5 µM; in assay [2], 0.01 to 0.1 µM; in the assay with human CD4+ T cells it was 0.01 to 0.03 µM.

`COC[C@H]1CN(c2cc(Cl)c3c4c(c(=O)oc3c2C)CN(C(=O)c2cc(F)c(C(=O)NS(=O)(=O)N3CCCC3)cc2OC)CC4)CCN1C` [Example 319, (R)-4-(10-chloro-8-(3-(methoxymethyl)-4-methylpiperazin-1-yl)-7-methyl-5-oxo-1,3,4,5-tetrahydro-2H-chromeno[3,4-c]pyridine-3-carbonyl)-2-fluoro-5-methoxy-N-(pyrrolidin-1-ylsulfonyl)benzamide]: the IC50 was 1 to 5 µM in assay [1], 0.01 to 0.1 µM in assay [2] and 0.1 to 1 µM with human CD4+ T cells. Moreover, in assay [2], the “MTHFD1/MTHFD2 IC50 ratio” value was “J (>30)”.

As for `COC[C@H]1CN(c2cc(C)c3c4c(c(=O)oc3c2C)CN(C(=O)c2ccc(C(=O)NS(=O)(=O)N3CCCC3)c(OC(C)C)c2F)CC4)CCN1C` [Example 149, (R)-3-fluoro-2-isopropoxy-4-(8-(3-(methoxymethyl)-4-methylpiperazin-1-yl)-7,10-dimethyl-5-oxo-1,3,4,5-tetrahydro-2H-chromeno[3,4-c]pyridine-3-carbonyl)-N-(pyrrolidin-1-ylsulfonyl)benzamide], the IC50 in assay [1] lay in the range of 0.01 to 0.1 µM; in assay [2], 0.001 to 0.01 µM; with human CD4+ T cells it was 0.001 to 0.01 µM. In addition, the “MTHFD1/MTHFD2 IC50 ratio” value in assay [2] is “F (<3)”.

Consider `COC[C@H]1CN(c2cc(C)c3c4c(c(=O)oc3c2C)CN(C(=O)c2cc(OC3CC3)c(C(=O)NS(=O)(=O)N3CCCC3)cc2F)CC4)CCN1C` [Example 263, (R)-2-cyclopropoxy-5-fluoro-4-(8-(3-(methoxymethyl)-4-methylpiperazin-1-yl)-7,10-dimethyl-5-oxo-1,3,4,5-tetrahydro-2H-chromeno[3,4-c]pyridine-3-carbonyl)-N-(pyrrolidin-1-ylsulfonyl)benzamide], for which the IC50 fell in the range of 0.01 to 0.1 µM in assay [1], 0.001 to 0.01 µM in assay [2] and 0.01 to 0.03 µM in the assay with human CD4+ T cells. The “MTHFD1/MTHFD2 IC50 ratio” value in assay [2] is “J (>30)”.

Regarding `COC[C@H]1CN(c2cc(Cl)c3c4c(c(=O)oc3c2C)CN(C(=O)c2cc(N(C)C)c(C(=O)NS(=O)(=O)N3CCCC3)cc2F)CC4)CCN1C` [Example 247, (R)-4-(10-chloro-8-(3-(methoxymethyl)-4-methylpiperazin-1-yl)-7-methyl-5-oxo-1,3,4,5-tetrahydro-2H-chromeno[3,4-c]pyridine-3-carbonyl)-2-(dimethylamino)-5-fluoro-N-(pyrrolidin-1-ylsulfonyl)benzamide], the IC50 lay in the range of 0.1 to 1 µM in assay [1], 0.001 to 0.01 µM in assay [2] and 0.01 to 0.03 µM in the assay on human CD4+ T cells.

In the case of `CCc1cc(N2CCN(C)[C@@H](COC)C2)c(C)c2oc(=O)c3c(c12)CCN(C(=O)c1cc(N(C)C)c(C(=O)NS(=O)(=O)N2CCCC2)cc1F)C3` [Example 245, (R)-2-(dimethylamino)-4-(10-ethyl-8-(3-(methoxymethyl)-4-methylpiperazin-1-yl)-7-methyl-5-oxo-1,3,4,5-tetrahydro-2H-chromeno[3,4-c]pyridine-3-carbonyl)-5-fluoro-N-(pyrrolidin-1-ylsulfonyl)benzamide], the IC50 in assay [1] lay within 1 to 5 µM; in assay [2], 0.001 to 0.01 µM; in the assay with human CD4+ T cells, 0.03 to 0.1 µM. Besides, the “MTHFD1/MTHFD2 IC50 ratio” value in assay [2] is “J (>30)”.

As to `COC[C@H]1CN(c2cc(C)c3c4c(c(=O)oc3c2C)CN(C(=O)c2ccc(C(=O)NS(=O)(=O)N3C5CCC3CC5)c(OC)c2F)CC4)CCN1C` [Example 157, (R)-N-((7-azabicyclo[2.2.1]heptan-7-yl)sulfonyl)-3-fluoro-2-methoxy-4-(8-(3-(methoxymethyl)-4-methylpiperazin-1-yl)-7,10-dimethyl-5-oxo-1,3,4,5-tetrahydro-2H-chromeno[3,4-c]pyridine-3-carbonyl)benzamide], the IC50 was in the range of 0.1 to 1 µM in assay [1], 0.01 to 0.1 µM in assay [2] and 0.03 to 0.1 µM in the assay with human CD4+ T cells. For the same compound, the “MTHFD1/MTHFD2 IC50 ratio” value in assay [2] is “H (>9.0 to 30)”.
